Data reported in patent US20030206932A1, “Novel topical compositions” (priority 1994, published 2003).

Test: Solubility parameter δ estimated from tabulated molecular substituent constants (Fedors)
Settings: difference to the solubility parameter of retinol
Source text: Solubility attributes of two or more materials with respect to each other are generally reflected in the “solubility parameter”, δ, which is expressed in the units (cal/cm^3)^1/2.
The value of the solubility parameter can be estimated from tabulated molecular substituent constants such as those described by Fedors. These substituent constants can be found in Solubility and Related Properties by Kenneth C. […] Generally, according to Textbook of Polymer Science, 2nd Ed., Billmeyer, solubility can be expected if the difference of the solubility parameters of two materials is less than about 2 units.
In the case of CC1CC(OC(=O)c2ccccc2O)CC(C)(C)C1 (stereo not drawn) [Homomenthyl Salicylate], the “δN − δRETINOL” value is reported as 1.14 (cal/cm^3)^1/2.
For CC1CCC(C(C)C)C(OC(=O)c2ccccc2N)C1 (stereo not drawn) [Menthyl Anthranilate], the “δN − δRETINOL” value was 0.13 (cal/cm^3)^1/2.
In the case of CCCCC(CC)COC(=O)C(C#N)=C(c1ccccc1)c1ccccc1 (stereo not drawn) [Octocrylene], the “δN − δRETINOL” value is reported as 0.74 (cal/cm^3)^1/2.
In the case of CCCCC(CC)COC(=O)c1ccc(N(C)C)cc1 (stereo not drawn) [Octyl Dimethyl PABA], the “δN − δRETINOL” value is reported as −0.33 (cal/cm^3)^1/2.
For CCCCC(CC)COC(=O)C=Cc1ccc(OC)cc1 (stereo not drawn) [Octyl Methoxy Cinnamate], the “δN − δRETINOL” value was −0.29 (cal/cm^3)^1/2.
For DEA Methoxysalicylate, the “δN − δRETINOL” value was 2.94 (cal/cm^3)^1/2.
